Measurements reported in patent US6358885B1, “Substituted phenylheterocyclic herbicides” (Mississippi State University, priority 1992, dated 2002).

Key:
barnyardgrass [1] = assay: Test C flood test plant response rating 0 to 100; assay type: in vivo, Echinochloa crus-galli; conditions: for Plant response rating Barnyardgrass 2: flood test species listed under POSTEMERGENCE, 0 to 100 scale
Summary of the method: (§1)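 Compounds in non-phytotoxic solvent applied preemergence to sandy loam one day after planting, postemergence at the 1–4 leaf stage, or to ~2.5 cm floodwater over silt loam.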

rape = assay: Test C preemergence/postemergence greenhouse plant response rating 0 to 100; assay type: in vivo, Brassica napus; conditions: POSTEMERGENCE; for Plant response rating, Rape: 0 to 100 scale
Summary of the method: as §1

downy brome = assay: as above; assay type: in vivo, Bromus tectorum; conditions: POSTEMERGENCE; for Plant response rating Downy Brome: 0 to 100 scale
Summary of the method: as §1

chickweed = assay: as above; assay type: in vivo, Stellaria media; conditions: POSTEMERGENCE; for Plant response rating, Chickweed: 0 to 100 scale
Summary of the method: as §1

giant foxtail [2] = assay: as above; assay type: in vivo, Setaria faberii; conditions: POSTEMERGENCE; for Plant response rating, Giant foxtail: 0 to 100 scale
Summary of the method: as §1

purple nutsedge = assay: Test B preemergence/postemergence greenhouse plant response rating 0 to 10; assay type: in vivo, Cyperus rotundus; conditions: 0 to 10 scale
Summary of the method: (§2)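 Planted seeds are treated preemergence with compound dissolved in a non-phytotoxic solvent, while postemergence applications go onto plants of two to eighteen cm. Plants stay in the greenhouse twelve to sixteen days and are then rated visually relative to controls.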

wild oat [3] = assay: as above; assay type: in vivo, Avena fatua; conditions: 0 to 10 scale
Summary of the method: as §2

soybean = assay: Test C preemergence/postemergence greenhouse plant response rating 0 to 100; assay type: in vivo, Glycine max; conditions: POSTEMERGENCE; for Plant response rating, Soybean: 0 to 100 scale
Summary of the method: as §1

umbrella sedge = assay: Test C flood test plant response rating 0 to 100; assay type: in vivo, Cyperus difformis; conditions: for Plant response rating Umbrella sedge: flood test species listed under POSTEMERGENCE, 0 to 100 scale
Summary of the method: as §1

wild oat [4] = assay: Test C preemergence/postemergence greenhouse plant response rating 0 to 100; assay type: in vivo, Avena fatua; conditions: POSTEMERGENCE; for Plant response rating, Wild oat: 0 to 100 scale
Summary of the method: as §1

lambsquarters = assay: Test B preemergence/postemergence greenhouse plant response rating 0 to 10; assay type: in vivo, Chenopodium album; conditions: 0 to 10 scale
Summary of the method: as §2

crabgrass = assay: as above; assay type: in vivo, Digitaria spp.; conditions: 0 to 10 scale
Summary of the method: as §2

wild buckwheat = assay: as above; assay type: in vivo, Polygonum convolvulus; conditions: 0 to 10 scale
Summary of the method: as §2

cotton = assay: Test C preemergence/postemergence greenhouse plant response rating 0 to 100; assay type: in vivo, Gossypium hirsutum; conditions: POSTEMERGENCE; for Plant response rating, Cotton: 0 to 100 scale
Summary of the method: as §1

barnyardgrass [5] = assay: Test B preemergence/postemergence greenhouse plant response rating 0 to 10; assay type: in vivo, Echinochloa crus-galli; conditions: 0 to 10 scale
Summary of the method: as §2

rice = assay: Test C flood test plant response rating 0 to 100; assay type: in vivo, Oryza sativa; conditions: for Plant response rating Rice Japonica: flood test species listed under POSTEMERGENCE, 0 to 100 scale
Summary of the method: as §1

cocklebur = assay: Test B preemergence/postemergence greenhouse plant response rating 0 to 10; assay type: in vivo, Xanthium pensylvanicum; conditions: 0 to 10 scale
Summary of the method: as §2

giant foxtail [6] = assay: as above; assay type: in vivo, Setaria faberii; conditions: 0 to 10 scale
Summary of the method: as §2

[7] = POSTEMERGENCE section, flood test, Rate 4 g/ha
[8] = Rate 16 g/ha, under POSTEMERGENCE head (flood test species)

CCC(C)Oc1cc(-c2nn3c(c2Cl)CCCC3)c(F)cc1Cl (stereo not shown) [Compound 48]
Plant response rating (0 to 100), Barnyardgrass 2 (barnyardgrass [1]; [7]): 20 | Plant response rating (0 to 100), Barnyardgrass 2 (barnyardgrass [1]; [8]): 40 | Plant response rating Barnyardgrass 2 (barnyardgrass [1]; 62 g/ha): 95 | Plant response rating Barnyardgrass 2 (barnyardgrass [1]; 250 g/ha): 100 | Plant response rating, Rape (rape; 62 g/ha): 50 | Plant response rating, Rape (rape; 250 g/ha): 90 | Plant response rating (0 to 100), Rape (rape; Rate 4 g/ha): 30 | Plant response rating (0 to 100), Rape (rape; Rate 16 g/ha): 30 | Plant response rating Downy Brome (downy brome; 62 g/ha): 40 | Plant response rating Downy Brome (downy brome; 250 g/ha): 70 | Plant response rating (0 to 100), Downy Brome (downy brome; Rate 4 g/ha): 0 | Plant response rating (0 to 100), Downy Brome (downy brome; Rate 16 g/ha): 20 | Plant response rating, Chickweed (chickweed; 62 g/ha): 60 | Plant response rating, Chickweed (chickweed; 250 g/ha): 80 | Plant response rating (0 to 100), Chickweed (chickweed; Rate 4 g/ha): 10 | Plant response rating (0 to 100), Chickweed (chickweed; Rate 16 g/ha): 30 | Plant response rating, Giant foxtail (giant foxtail [2]; 62 g/ha): 40 | Plant response rating, Giant foxtail (giant foxtail [2]; 250 g/ha): 90 | Plant response rating (0 to 100), Giant foxtail (giant foxtail [2]; Rate 4 g/ha): 20 | Plant response rating (0 to 100), Giant foxtail (giant foxtail [2]; Rate 16 g/ha): 30 | Plant response rating, Nutsedge (purple nutsedge; POSTEMERGENCE, Rate 50 g/ha): 4 | Plant response rating, Nutsedge (purple nutsedge; PREEMERGENCE, Rate 50 g/ha): 0 | Plant response rating, Nutsedge (purple nutsedge; Rate 200 g/ha, POSTEMERGENCE): 5 | Plant response rating, Nutsedge (purple nutsedge; Rate 200 g/ha, PREEMERGENCE): 0 | Plant response rating, Wild oat (wild oat [3]; POSTEMERGENCE, Rate 50 g/ha): 4 | Plant response rating, Wild oat (wild oat [3]; PREEMERGENCE, Rate 50 g/ha): 0 | Plant response rating, Wild oat (wild oat [3]; Rate 200 g/ha, POSTEMERGENCE): 6 | Plant response rating, Soybean (soybean; 62 g/ha): 40 | Plant response rating, Soybean (soybean; 250 g/ha): 50 | Plant response rating (0 to 100), Soybean (soybean; Rate 4 g/ha): 30 | Plant response rating (0 to 100), Soybean (soybean; Rate 16 g/ha): 30 | Plant response rating (0 to 100), Umbrella sedge (umbrella sedge; [7]): 10 | Plant response rating (0 to 100), Umbrella sedge (umbrella sedge; [8]): 10 | Plant response rating Umbrella sedge (umbrella sedge; 62 g/ha): 40 | Plant response rating Umbrella sedge (umbrella sedge; 250 g/ha): 70 | Plant response rating, Wild oat (wild oat [4]; 62 g/ha): 40 | Plant response rating, Wild oat (wild oat [4]; 250 g/ha): 60 | Plant response rating (0 to 100), Wild oat (wild oat [4]; Rate 4 g/ha): 20 | Plant response rating (0 to 100), Wild oat (wild oat [4]; Rate 16 g/ha): 30 | Plant response rating, Lambsquarter (lambsquarters; POSTEMERGENCE, Rate 50 g/ha): 10 | Plant response rating, Lambsquarter (lambsquarters; PREEMERGENCE, Rate 50 g/ha): 10 | Plant response rating, Lambsquarter (lambsquarters; Rate 200 g/ha, POSTEMERGENCE): 10 | Plant response rating, Lambsquarter (lambsquarters; Rate 200 g/ha, PREEMERGENCE): 10 | Plant response rating, Crabgrass (crabgrass; POSTEMERGENCE, Rate 50 g/ha): 8 | Plant response rating, Crabgrass (crabgrass; POSTEMERGENCE, Rate 200 g/ha): 9 | Plant response rating, Crabgrass (crabgrass; PREEMERGENCE, Rate 50 g/ha): 2 | Plant response rating, Crabgrass (crabgrass; Rate 200 g/ha, PREEMERGENCE): 9 | Plant response rating, Wild buckwheat (wild buckwheat; POSTEMERGENCE, Rate 50 g/ha): 10 | Plant response rating, Wild buckwheat (wild buckwheat; PREEMERGENCE, Rate 50 g/ha): 9 | Plant response rating, Wild buckwheat (wild buckwheat; Rate 200 g/ha, POSTEMERGENCE): 9 | Plant response rating, Wild buckwheat (wild buckwheat; Rate 200 g/ha, PREEMERGENCE): 10 | Plant response rating, Cotton (cotton; 62 g/ha): 100 | Plant response rating, Cotton (cotton; 250 g/ha): 100 | Plant response rating (0 to 100), Cotton (cotton; Rate 4 g/ha): 90 | Plant response rating (0 to 100), Cotton (cotton; Rate 16 g/ha): 100 | Plant response rating, Barnyardgrass (barnyardgrass [5]; POSTEMERGENCE, Rate 50 g/ha): 4 | Plant response rating, Barnyardgrass (barnyardgrass [5]; POSTEMERGENCE, Rate 200 g/ha): 8 | Plant response rating, Barnyardgrass (barnyardgrass [5]; PREEMERGENCE, Rate 50 g/ha): 2 | Plant response rating, Barnyardgrass (barnyardgrass [5]; Rate 200 g/ha, PREEMERGENCE): 3 | Plant response rating (0 to 100), Rice Japonica (rice; [7]): 10 | Plant response rating (0 to 100), Rice Japonica (rice; [8]): 20 | Plant response rating Rice Japonica (rice; 62 g/ha): 30 | Plant response rating Rice Japonica (rice; 250 g/ha): 60 | Plant response rating, Cocklebur (cocklebur; POSTEMERGENCE, Rate 50 g/ha): 7 | Plant response rating, Cocklebur (cocklebur; POSTEMERGENCE, Rate 200 g/ha): 9 | Plant response rating, Cocklebur (cocklebur; Rate 200 g/ha, PREEMERGENCE): 0 | Plant response rating, Giant foxtail (giant foxtail [6]; POSTEMERGENCE, Rate 50 g/ha): 6 | Plant response rating, Giant foxtail (giant foxtail [6]; PREEMERGENCE, Rate 50 g/ha): 6 | Plant response rating, Giant foxtail (giant foxtail [6]; Rate 200 g/ha, POSTEMERGENCE): 9 | Plant response rating, Giant foxtail (giant foxtail [6]; Rate 200 g/ha, PREEMERGENCE): 9
